Source: ChEMBL document CHEMBL1124159, “Synthesis and structure-activity relationships of 2-sulfonamido-1,3,4,6,7,11b alpha-hexahydro-2H-benzo[a]quinolizines as alpha 2-adrenoceptor antagonists” (J Med Chem, 1988)

Tests used:
[1] = target: T1, Adrenergic receptor alpha-2 (Rattus norvegicus, UniProt P22086+P19328+P22909); test: Antagonistic activity against alpha-2 adrenergic receptor in rat vas deferens; type: functional, tissue-based
T1 sequence (P22086 whole entry): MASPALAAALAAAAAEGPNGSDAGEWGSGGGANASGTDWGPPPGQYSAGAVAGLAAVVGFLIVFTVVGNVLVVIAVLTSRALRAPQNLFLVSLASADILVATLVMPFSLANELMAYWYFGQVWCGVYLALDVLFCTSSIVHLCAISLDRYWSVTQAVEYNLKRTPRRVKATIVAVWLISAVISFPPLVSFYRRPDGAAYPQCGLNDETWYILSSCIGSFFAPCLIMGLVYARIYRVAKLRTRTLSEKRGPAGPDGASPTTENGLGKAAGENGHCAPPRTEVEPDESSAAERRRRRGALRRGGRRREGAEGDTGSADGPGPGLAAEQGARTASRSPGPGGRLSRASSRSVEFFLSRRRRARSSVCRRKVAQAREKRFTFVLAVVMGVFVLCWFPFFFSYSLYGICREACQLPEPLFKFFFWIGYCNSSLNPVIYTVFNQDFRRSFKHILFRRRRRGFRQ
T1 sequence (P19328 whole entry): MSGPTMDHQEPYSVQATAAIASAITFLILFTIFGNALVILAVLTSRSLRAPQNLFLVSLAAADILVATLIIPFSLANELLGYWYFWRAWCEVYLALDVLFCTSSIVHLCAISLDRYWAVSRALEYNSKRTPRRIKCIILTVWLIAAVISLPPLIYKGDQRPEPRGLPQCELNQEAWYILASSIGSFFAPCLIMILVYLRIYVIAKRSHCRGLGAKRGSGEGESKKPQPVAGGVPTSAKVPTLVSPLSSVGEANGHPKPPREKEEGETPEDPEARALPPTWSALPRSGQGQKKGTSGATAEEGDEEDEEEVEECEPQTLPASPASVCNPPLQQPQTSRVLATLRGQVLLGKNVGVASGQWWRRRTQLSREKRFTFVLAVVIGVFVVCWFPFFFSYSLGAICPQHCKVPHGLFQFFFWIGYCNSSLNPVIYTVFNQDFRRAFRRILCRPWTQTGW
T1 sequence (P22909 whole entry): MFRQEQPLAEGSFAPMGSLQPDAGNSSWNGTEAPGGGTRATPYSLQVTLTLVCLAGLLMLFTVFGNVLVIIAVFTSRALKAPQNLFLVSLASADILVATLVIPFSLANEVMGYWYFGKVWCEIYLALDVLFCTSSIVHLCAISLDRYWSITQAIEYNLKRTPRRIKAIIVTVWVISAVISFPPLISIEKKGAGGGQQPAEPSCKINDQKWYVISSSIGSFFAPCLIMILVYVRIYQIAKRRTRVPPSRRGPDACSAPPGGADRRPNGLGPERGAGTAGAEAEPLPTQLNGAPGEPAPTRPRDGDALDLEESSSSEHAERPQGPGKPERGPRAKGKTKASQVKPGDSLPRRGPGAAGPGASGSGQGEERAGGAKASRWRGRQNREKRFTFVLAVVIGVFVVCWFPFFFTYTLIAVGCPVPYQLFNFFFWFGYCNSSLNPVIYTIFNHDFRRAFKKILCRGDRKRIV

[2] = target: T2, Adrenergic receptor alpha-1 (Rattus norvegicus, UniProt P15823+P23944+P43140); test: Antagonistic activity against alpha-1-adrenoceptor in isolated rat anococcygeus muscle; type: functional, tissue-based, Muscle tissue
T2 sequence (P15823 whole entry): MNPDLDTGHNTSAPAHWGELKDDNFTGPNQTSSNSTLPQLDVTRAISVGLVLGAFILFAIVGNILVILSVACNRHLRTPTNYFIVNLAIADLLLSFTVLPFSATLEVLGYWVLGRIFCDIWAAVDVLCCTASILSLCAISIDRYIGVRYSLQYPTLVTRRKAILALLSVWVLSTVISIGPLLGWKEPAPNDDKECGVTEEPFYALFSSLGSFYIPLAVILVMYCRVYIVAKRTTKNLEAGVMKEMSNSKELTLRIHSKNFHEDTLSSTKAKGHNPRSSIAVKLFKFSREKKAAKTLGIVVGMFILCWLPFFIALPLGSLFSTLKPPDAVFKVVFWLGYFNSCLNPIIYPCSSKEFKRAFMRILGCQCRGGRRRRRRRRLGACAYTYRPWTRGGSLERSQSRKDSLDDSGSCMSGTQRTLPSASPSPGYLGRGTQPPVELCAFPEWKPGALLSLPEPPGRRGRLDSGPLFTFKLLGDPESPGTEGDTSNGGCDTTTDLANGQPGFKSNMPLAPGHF
T2 sequence (P23944 whole entry): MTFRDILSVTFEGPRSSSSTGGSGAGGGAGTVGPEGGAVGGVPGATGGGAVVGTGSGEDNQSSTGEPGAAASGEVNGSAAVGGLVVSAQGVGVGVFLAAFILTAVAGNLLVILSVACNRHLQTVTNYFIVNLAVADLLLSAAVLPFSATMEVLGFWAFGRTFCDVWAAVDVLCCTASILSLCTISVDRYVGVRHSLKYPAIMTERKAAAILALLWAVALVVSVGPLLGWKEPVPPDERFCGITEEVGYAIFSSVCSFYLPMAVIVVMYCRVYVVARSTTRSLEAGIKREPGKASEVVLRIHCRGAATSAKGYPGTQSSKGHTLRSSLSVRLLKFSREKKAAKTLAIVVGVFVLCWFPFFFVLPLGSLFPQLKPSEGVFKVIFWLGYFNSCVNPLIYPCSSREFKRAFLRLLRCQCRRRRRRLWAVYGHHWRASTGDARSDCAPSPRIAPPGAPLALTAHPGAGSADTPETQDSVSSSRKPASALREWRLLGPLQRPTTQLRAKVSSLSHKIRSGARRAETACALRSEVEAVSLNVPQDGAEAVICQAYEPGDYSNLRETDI
T2 sequence (P43140 whole entry): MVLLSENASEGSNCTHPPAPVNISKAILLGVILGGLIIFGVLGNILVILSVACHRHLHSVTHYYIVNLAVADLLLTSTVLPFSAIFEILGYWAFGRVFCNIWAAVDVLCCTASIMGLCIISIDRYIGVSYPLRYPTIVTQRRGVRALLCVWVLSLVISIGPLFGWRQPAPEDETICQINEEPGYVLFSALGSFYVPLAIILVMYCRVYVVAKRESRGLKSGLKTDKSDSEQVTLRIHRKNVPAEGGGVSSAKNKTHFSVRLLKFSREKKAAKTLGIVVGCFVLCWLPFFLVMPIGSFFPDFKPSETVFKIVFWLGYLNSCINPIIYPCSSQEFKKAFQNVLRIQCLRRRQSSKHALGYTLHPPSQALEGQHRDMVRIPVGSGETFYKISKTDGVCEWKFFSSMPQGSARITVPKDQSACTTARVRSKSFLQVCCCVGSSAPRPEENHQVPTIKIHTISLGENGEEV

[3] = target: T2, Adrenergic receptor alpha-1; test: Antagonistic activity against alpha-1 adrenergic receptor in rat anococcygeus muscle

With CS(=O)(=O)N[C@@H]1CCN2CCc3ccccc3[C@@H]2C1 the pA2 [1] was 6.27 and the pA2 [2] was 5.33.
With CCCS(=O)(=O)N(C)[C@@H]1CCN2CCc3ccccc3[C@@H]2C1 (stereo in doubt) the pA2 [1] was 8.5 and the pA2 [3] was 7.2.
With CC(C)CS(=O)(=O)N(C)[C@@H]1CCN2CCc3ccccc3[C@@H]2C1 (stereo in doubt) the pA2 [1] was 8.05 and the pA2 [3] was 6.9.
